The text below walks through data of patent US6667025B2 (Mitsubishi Pharma Corporation, priority 1997, dated 2003).

For data set [1], the system named is (LEW×BN)F1 recipients injected with LEW spleen cells. Description: Lethal GvHR in cyclophosphamide-pretreated recipients. The class given is in vivo, rat. On the procedure: To examine the effect of FTY720 in preventing the lethal GvHR, splenic lymphocytes from LEW donor rats (1×10^8 spleen cells) were injected intravenously into cyclophosphamide-pretreated (LEW×BN)F1 recipients. Cyclophosphamide (Shionogi Co. Ltd; Osaka, Japan) was given at a 200 mg/kg dose.

Data set [2] deals with calcein-prelabeled lymphocytes in lymphoid tissues. Description: Lymphocyte homing of calcein-prelabeled lymphocytes. The class given is in vivo, rat. Conditions: oral 1 mg/kg. On the procedure:
The lymphocytes prepared from mesenteric lymph nodes and axillary lymph nodes in 5 to 6-week old F344 rats were pre-labeled with calcein-AM (Molecular Probes) at 1 μmol/L on ice for 30 min. After the labeling with calcein-AM, the lymphocytes were washed three times with ice-cold saline. Thereafter, the calcein-prelabeled lymphocytes at 5×10^7 cells were transfused through the tail vein to sex and age-matched F344 rats. FTY720 at 0.1 or 1 mg/kg was orally administered 2.5 hours before the transfusion. After 30 min. of the transfusion, mesenteric lymph nodes, axillary lymph nodes, Peyer's patches, and spleen were removed and the numbers of calcein prelabeled lymphocytes in these tissues were measured using flow cytometer (EPICS-XL). To examine the influence of antibodies against lymphocyte homing receptors, the calcein-prelabeled lymphocytes were treated with 60 μg/ml of either mouse anti-rat CD49d Mab (clone TA-2) (49), hamster anti-rat CD62L Mab (clone HRL3) (50), mouse anti-rat CD11a Mab (clone WT.1) (51), or control Ig at 4° C. for 30 min. Anti-rat lymphocyte-homing receptor Mabs and control Ig were purchased from Seikagaku-kougyou Ltd. or Pharmingen, respectively.

The subject of data set [3] is cardiac allograft, WKAH donors and ACI recipients. Nature of the data set: Heterotopic cardiac allograft survival, MHC-incompatible rat strains. The data set is classed as in vivo.
The test system of data set [4] is renal allograft, mongrel donors and beagle recipients. Description: Canine renal allograft survival. The data set is classed as in vivo. Conditions: 5 mg/kg. Here is the method: Kidneys from mongrel donor dogs were transplanted into beagle dogs in the right iliac fossa, and the recipient dogs were then nephrectomized bilaterally. Levels of serum creatine and blood urea nitrogen were measured to monitor survival. Graft rejection was defined as the day when either serum creatine levels increased to more than 10.0 mg/dL or blood urea nitrogen levels elevated to more than 200 mg/dL. […] The survival curves are illustrated in FIG. 6.

In data set [5] the test system is popliteal lymph node of (LEW×BN) F1 rats injected with LEW spleen cells. Description: Local GvHR, enlargement of popliteal lymph node. The data set is classed as in vivo, rat.
In data set [6] the test system is skin allograft, WKAH donor and F344 recipients. The class given is in vivo. An excerpt:
Two MHC-incompatible rat strains were selected, WKAH donor (RT1^k) and F344 recipients (RT1^IV1). Full-thickness skin grafts (2.0×2.0 cm square) were transplanted to the lateral thorax of recipients and wrapped with sterile, bactericidal gauze. The chest was then wrapped with an elastic bandage. Five days after transplantation, the wraps were removed and the grafts inspected daily for rejection. Rejection was defined as more than 90% necrosis of graft epithelium.

In data set [7] the test system is skin allograft, LEW donor and F344 recipient. Description: Rat skin allograft survival, MHC-compatible strains. The data set is classed as in vivo. Conditions: data not shown.
The next data set has as its system circulating lymphocytes. Nature of the data set: Circulating lymphocytes in peripheral blood of monkeys. The data set is classed as in vivo, monkey. The settings on record: oral. An excerpt: In dogs and monkeys, as well as rats, oral administration with FTY720 also decreases the number of circulating lymphocytes in peripheral blood. The reduction of the number of T cells was especially remarkable. Withdrawal of FTY720 treatment recovered the number of lymphocytes in peripheral blood to the normal level within 2 weeks.

Another data set concerns IL-2 production. The settings on record: same concentration range (up to 1000 nM); cited from earlier work.

For `CCCCCCCCc1ccc(CCC(N)(CO)CO)cc1.Cl` [FTY720, 2-amino-2[2-(4-octylphenyl)ethyl]propane-1,3-diol hydrochloride], the “survival of recipient rats” value in data set [1] (0.3 mg/kg, four out of five rats, without GvHR-associated symptoms) was “more than 60 days”. In addition, the GvHR-associated symptoms result in data set [1] (oral 0.1 mg/kg for 30 days) was “prevented the development of GvHR-associated symptoms”. Also, the “MST of recipient rats” value in [1] (oral 0.1 mg/kg for 30 days) amounted to 50.0 days. The “homing of calcein-prelabeled lymphocytes to mesenteric lymph nodes and Peyer's patches” value in data set [2] is “induced lymphocyte homing”. Also, the “MST of cardiac allograft” value in data set [3] (0.1 mg/kg for 14 days) is 20.0 days; in data set [3] (0.3 mg/kg for 14 days), 21.0 days; in data set [3] (1 mg/kg for 14 days), 25.5 days; in data set [3] (3 mg/kg for 14 days), 29.5 days; in data set [3] (10 mg/kg for 14 days), 58.5 days. For the same molecule, the “long-term or indefinite cardiac graft survival” value in data set [3] (10 mg/kg, in three out of eight recipient rats) is “more than 100 days”. Further, the “dose that significantly prolonged cardiac allograft survival” value in data set [3] (vs control) was at least 0.1 mg/kg. For the same molecule, the “MST of renal allograft” value in data set [4] stood at 12.0 days. For the same molecule, in data set [5] (local GvHR in rats), the “immunosuppressive potency relative to CsA” value worked out at 30 fold. The “oral dose that significantly inhibited enlargement of popliteal lymph node” value in data set [5] (oral, local GvHR) is at least 0.1 mg/kg. Moreover, the “median survival time (MST) of skin graft” value in [6] (10 mg/kg for 14 days) is given as 27.0 days. In addition, the “oral dose that significantly prolonged skin graft survival” value in data set [6] (oral, WKAH to F344 rats) is listed as at least 0.1 mg/kg. Moreover, in data set [6] (rat, in vivo, po, 10 mg/kg), the “renal toxicity or other toxic signs” value is on record as “without renal toxicity or other toxic signs”. Further, the “dose that significantly prolonged skin allograft survival” value in data set [7] was at least 0.03 mg/kg. In addition, the “number of circulating lymphocytes in peripheral blood” value in the data set with circulating lymphocytes is on record as “decreases”. Further, the “production of IL-2” value in the data set on IL-2 production is “did not inhibit”.
